Assay [1] addresses T1, GST-ALK5 (TGF-beta receptor kinase) (Homo sapiens, UniProt P36897).
T1 sequence (P36897 34-503): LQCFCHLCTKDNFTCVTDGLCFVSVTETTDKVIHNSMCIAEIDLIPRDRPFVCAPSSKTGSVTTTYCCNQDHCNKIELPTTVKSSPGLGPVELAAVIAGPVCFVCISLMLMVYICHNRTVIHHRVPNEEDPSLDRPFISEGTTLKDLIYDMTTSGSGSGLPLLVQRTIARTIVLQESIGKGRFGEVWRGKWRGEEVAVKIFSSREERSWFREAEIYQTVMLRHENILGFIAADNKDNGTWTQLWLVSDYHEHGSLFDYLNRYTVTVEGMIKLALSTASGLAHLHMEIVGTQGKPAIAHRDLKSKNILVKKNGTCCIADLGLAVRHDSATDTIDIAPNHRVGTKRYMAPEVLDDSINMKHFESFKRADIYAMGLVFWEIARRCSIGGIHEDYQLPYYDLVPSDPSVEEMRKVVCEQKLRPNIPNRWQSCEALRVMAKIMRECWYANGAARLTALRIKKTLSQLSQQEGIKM
In words: In-vitro (enzyme) kinase flashplate assay: GST-ALK5 phosphorylation of GST-SMAD2 with 33P-ATP. The format is biochemical. The conditions noted are these: 384-well flashplate kinase assay, GST-ALK5 / GST-SMAD2, 33P-ATP, 30° C., 45 min; read-out: TβR activity (Example 50). As for the experimental part: In-vitro (Enzyme) Assay for Determination of the Efficacy of Inhibitors of the Inhibition of TGF-Beta-Mediated Effects
The kinase assay was carried out as 384-well flashplate assay. 31.2 nM of GST-ALK5, 439 nM of GST-SMAD2 and 3 mM of ATP (with 0.3 μCi of ^33P-ATP/well) were incubated in a total volume of 35 μl (20 mM of HEPES, 10 mM of MgCl2, 5 mM of MnCl2, 1 mM of DTT, 0.1% of BSA, pH 7.4) without or with test substance (5-10 concentrations) at 30° C. for 45 min. The reaction was stopped using 25 μl of 200 mM EDTA solution, filtered with suction at room temperature after 30 min, and the wells were washed with 3 times 100 μl of 0.9% NaCl solution. Radioactivity was measured in the TopCount. The IC50 values were calculated using RS1.

In assay [2] the test system is TGF-beta-induced phosphorylation of Smad2 (Ser465/467) and Smad3 (Ser423/425) in Mv1-Lu cells. The experiment in a line: Inhibition of Smad2/3 phosphorylation in Mv1Lu cells (PathScan Phospho-Smad2 ELISA). The following applies: Neogale vison, read-out: TβR activity (Example 51). In kind it is cell-based, mink Mustela vison. As to the method: Inhibition of Smad2/3 Phosphorylation in Mv1 Lu Cells by TGF-Beta Receptor I Kinase Inhibitors
This assay was used to determine the inhibitory potency of compounds on TGF-beta-induced phosphorylation of Smad2 (Ser465/467) and Smad3 (Ser423/425). Mv1-Lu cells (lung epithelial cell line from mink Mustela vison; ATCC number: CCL-64) were seeded in DMEM (Invitrogen) supplemented with 10% fetal bovine serum (Pan Biotech) at a defined cell density in 24-well or 96-well plates (24-well plate: 1.5×10^5 cells per well; 96-well plate: 4×10^4 cells per well). Cell cultures were incubated in DMEM at 37° C. and 10% CO2. On the next day, the medium was replaced and cells were serum-starved for 16-20 hours. The following day, serial dilutions of compounds were added to the wells, pre-incubated for 1.5 hrs before recombinant TGF-beta 1 ligand (final concentration 5 ng/ml; R&D systems) was added. After one hour of ligand stimulation, lysates were prepared and analyzed using an enzyme-linked immunosorbent assay kit (PathScan Phospho-Smad2 Kit, Cell Signaling Technologies). The ELISA detects phosphorylated Smad2 as well as phosphorylated Smad3 with the phospho-specific antibody. TGF-beta stimulated cells and unstimulated cells served as positive and negative controls (100% and background control). The concentration of the vehicle DMSO was kept constant at 0.2% (v/v) in all wells. Dose-response relationships were fitted using curve fitting algorithms of the RS1 statistics software package (Brooks Automation Inc. RS/1- Statistical Tools Handbook. Release 6.2) to determine the concentration at which half-maximal inhibition (IC50) of Smad2/3 phosphorylation was achieved.
Background: An ELISA detects its analyte on a solid surface through an enzyme-linked reagent.

The mark [3] stands for this setting: Mv1-Lu cells, TGF-beta 1 5 ng/ml, Phospho-Smad2/3 ELISA.

The values below come from US8791113B2, “2,4-diaryl-substituted [1,8] naphthyridines as kinase inhibitors for use against cancer” (Merck Patent GmbH, priority 2010, dated 2014).

pIC50: −log10 of the molar value. Where a name gives a salt, the structure may show the parent alone. Read-outs that look alike come from different tables or passages of the source.

As for `Fc1ccccc1-c1cc(-c2ccnc3cnccc23)c2cccnc2n1` [Compound 111, 4-[2-(2-Fluoro-phenyl)-[1,8]naphthyridin-4-yl]-[1,7]naphthyridine], the results for the pIC50 in assay [1] and in assay [2] (setting [3]) were more than 6.00 and less than 5.00, respectively.

As for `Cc1ccn(-c2cc(-c3c[nH]c4cnccc34)c3cccnc3n2)n1` [Compound 118, 2-(3-Methyl-pyrazol-1-yl)-4-(1H-pyrrolo[2,3-c]pyridin-3-yl)-[1,8]naphthyridine], the pIC50 in assay [1] and in assay [2] (setting [3]) was more than 6.00 throughout.

Regarding `O=c1[nH]cc(-c2cc(-c3cc(Cl)ccc3F)nc3ncccc23)c2ccncc12` [Compound 89, 4-[2-(5-Chloro-2-fluoro-phenyl)-[1,8]naphthyridin-4-yl]-2H-[2,7]naphthyridin-1-one], the pIC50 in assay [1] and in assay [2] (setting [3]) was more than 6.00 each time.

Take `O=c1c2cnccc2c(-c2cc(-c3cc(Cl)ccc3F)nc3ncccc23)cn1CCCO` [Compound 75, 4-[2-(5-Chloro-2-fluoro-phenyl)-[1,8]naphthyridin-4-yl]-2-(3-hydroxy-propyl)-2H-[2,7]naphthyridin-1-one]: the pIC50 in assay [1] and in assay [2] (setting [3]) was more than 6.00 each time.

For the molecule `c1coc(-c2cc(-c3c[nH]c4cnccc34)c3cccnc3n2)c1` [Compound 101, 2-Furan-2-yl-4-(1H-pyrrolo[2,3-c]pyridin-3-yl)-[1,8]naphthyridine], the pIC50 in assay [1] and in assay [2] (setting [3]) was more than 6.00 in each case.

On to `Nc1nccc2c(-c3cc(-c4cc(Cl)ccc4F)nc4ncccc34)coc12` [Compound 13, 3-[2-(5-Chloro-2-fluoro-phenyl)-[1,8]naphthyridin-4-yl]-furo[2,3-c]pyridin-7-ylamine], for which the pIC50 in assay [1] and in assay [2] (setting [3]) was more than 6.00 throughout.

On to `Nc1nccc2c(-c3cc(-c4ccccc4Cl)nc4ncccc34)nccc12` [Compound 90, 5-[2-(2-Chloro-phenyl)-[1,8]naphthyridin-4-yl]-[2,6]naphthyridin-1-ylamine], for which the pIC50 was more than 6.00 in assay [1] and 5.00 to 6.00 in assay [2] (setting [3]).

On to `CCN(CC)CCOc1ccc(-c2cc(-c3cc(Cl)ccc3F)nc3ncccc23)c2ccncc12` [Compound 86, (2-{5-[2-(5-Chloro-2-fluoro-phenyl)-[1,8]naphthyridin-4-yl]-isoquinolin-8-yloxy}-ethyl)-diethyl-amine], for which the pIC50 in assay [1] and in assay [2] (setting [3]) was more than 6.00 throughout.

For `Nc1ccc(-c2cc(-c3cc(F)ccc3F)nc3ncccc23)c2ccncc12` [Compound 38, 5-[2-(2,5-Difluoro-phenyl)-[1,8]naphthyridin-4-yl]-isoquinolin-8-ylamine], the pIC50 in assay [1] and in assay [2] (setting [3]) was more than 6.00 each time.

In the case of `Nc1ccc(-c2cc(-c3cc(Cl)ccc3F)nc3ncccc23)c2ccncc12` [Compound 22, 5-[2-(5-Chloro-2-fluoro-phenyl)-[1,8]naphthyridin-4-yl]-isoquinolin-8-ylamine hydrochloride], the pIC50 in assay [1] and in assay [2] was more than 6.00 each time.

In the case of `O=c1c2cnccc2c(-c2cc(-c3cc(Cl)ccc3F)nc3ncccc23)cn1CC(O)CO` (centres unmarked) [Compound 81, 4-[2-(5-Chloro-2-fluoro-phenyl)-[1,8]naphthyridin-4-yl]-2-(2,3-dihydroxy-propyl)-2H-[2,7]naphthyridin-1-one], the pIC50 in assay [1] and in assay [2] (setting [3]) was more than 6.00 in each case.

As to `CC(=O)Nc1ccc2cnccc2c1-c1cc(-c2ccccc2F)nc2ncccc12` [Compound 85, N-{5-[2-(2-Fluoro-phenyl)-[1,8]naphthyridin-4-yl]-isoquinolin-6-yl}-acetamide], the pIC50 in assay [1] was 5.00 to 6.00; in assay [2] (setting [3]) it was less than 5.00.

`CN(C)CC(=O)Nc1nccc2c(-c3cc(-c4ccccc4F)nc4ncccc34)nccc12` [Compound 71, 2-Dimethylamino-N-{5-[2-(2-fluoro-phenyl)-[1,8]naphthyridin-4-yl]-[2,6]naphthyridin-1-yl}-acetamide]: the pIC50 in assay [1] and in assay [2] (setting [3]) was 5.00 to 6.00 in each case.

For `Nc1nccc2c(-c3cc(-c4cc(F)ccc4F)nc4ncccc34)nccc12` [Compound 20, 5-[2-(2,5-Difluoro-phenyl)-[1,8]naphthyridin-4-yl]-[2,6]naphthyridin-1-ylamine hydrochloride], the pIC50 in assay [1] and in assay [2] was more than 6.00 throughout.

Turning to `COc1ccc(-c2cc(-c3ccccc3F)nc3ncccc23)c2ccncc12` [Compound 17, 2-(2-Fluoro-phenyl)-4-(8-methoxy-isoquinolin-5-yl)-[1,8]naphthyridine], the pIC50 in assay [1] and in assay [2] (setting [3]) was more than 6.00 each time.

Turning to `Fc1ccccc1-c1cc(-c2nccc3cnccc23)c2cccnc2n1` [Compound 23, 2-(2-Fluoro-phenyl)-4-[2,6]naphthyridin-1-yl-[1,8]naphthyridine], the pIC50 in assay [1] and in assay [2] (setting [3]) was 5.00 to 6.00 throughout.

As for `Cn1cc(-c2ccc(-c3cc(-c4ccccc4F)nc4ncccc34)c3cnccc23)cn1` [Compound 64, 2-(2-Fluoro-phenyl)-4-[5-(1-methyl-1H-pyrazol-4-yl)-isoquinolin-8-yl]-[1,8]naphthyridine], the pIC50 in assay [1] is 5.00 to 6.00; in assay [2] (setting [3]), more than 6.00.

Take `Fc1ccc(C(F)(F)F)cc1-c1cc(-c2c[nH]c3cnccc23)c2cccnc2n1` [Compound 3, 2-(2-Fluoro-5-trifluoromethyl-phenyl)-4-(1H-pyrrolo[2,3-c]pyridin-3-yl)-[1,8]naphthyridine]: the pIC50 in assay [1] and in assay [2] (setting [3]) was more than 6.00 in each case.

`COc1cnc(-c2cc(-c3ccccc3F)nc3ncccc23)c2ccncc12` [Compound 115, 2-(2-Fluoro-phenyl)-4-(4-methoxy-[2,6]naphthyridin-1-yl)-[1,8]naphthyridine]: the pIC50 in assay [1] and in assay [2] (setting [3]) was more than 6.00 throughout.

Regarding `Fc1ccccc1-c1cc(-c2ccc(OCCN3CCOCC3)c3cnccc23)c2cccnc2n1` [Compound 25, 2-(2-fluoro-phenyl)-4-[8-(2-morpholin-4-yl-ethoxy)-isoquinolin-5-yl]-[1,8]naphthyridine], the pIC50 in assay [1] and in assay [2] (setting [3]) was more than 6.00 throughout.

Take `Nc1nccc2c(-c3cc(-c4cc(F)ccc4F)nc4ncccc34)cccc12` [Compound 10, 5-[2-(2,5-Difluoro-phenyl)-[1,8]naphthyridin-4-yl]-isoquinolin-1-ylamine]: the pIC50 in assay [1] and in assay [2] (setting [3]) was more than 6.00 each time.

On to `Nc1cc2cnccc2c(-c2cc(-c3ccccc3F)nc3ncccc23)n1` [Compound 66, 1-[2-(2-Fluoro-phenyl)-[1,8]naphthyridin-4-yl]-[2,6]naphthyridin-3-ylamine], for which the pIC50 in assay [1] and in assay [2] (setting [3]) was more than 6.00 in each case.

As to `Nc1ccc2c(-c3nccc4c(N)nccc34)cc(-c3ccccc3F)nc2n1` [Compound 114, 5-(5-Amino-[2,6]naphthyridin-1-yl)-7-(2-fluoro-phenyl)-[1,8]naphthyridin-2-ylamine], the pIC50 in assay [1] and in assay [2] (setting [3]) was more than 6.00 throughout.

Turning to `COc1ccc2cnccc2c1-c1cc(-c2ccccc2F)nc2ncccc12` [Compound 70, 2-(2-Fluoro-phenyl)-4-(6-methoxy-isoquinolin-5-yl)-[1,8]naphthyridine], the pIC50 in assay [1] and in assay [2] (setting [3]) was more than 6.00 in each case.

As to `Cc1ccc(-c2cc(-c3nccc4c(N)nccc34)c3cccnc3n2)o1` [Compound 84, 5-[2-(5-Methyl-furan-2-yl)-[1,8]naphthyridin-4-yl]-[2,6]naphthyridin-1-ylamine], the pIC50 in assay [1] and in assay [2] (setting [3]) was more than 6.00 throughout.
